RP-LC retention time data for 79 molecules are collected here from the METLIN SMRT retention time set (Domingo-Almenara et al. 2019).

The data set is described as follows: gradient 5% acetonitrile 3 min, to 50% in 2 min, to 85% in 15 min, held 3 min, 100 µL/min. The note with it: column: Zorbax Extend-C18 2.1 x 50 mm; eluents: water / acetonitrile, 0.1% formic acid. The method in brief:
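Mixtures of ~100 pure standards were chromatographed on a Zorbax Extend-C18 column (2.1 × 50 mm, 1.8 μm) at 100 μL/min using water and acetonitrile, each with 0.1% formic acid. Detection used a quadrupole time-of-flight mass spectrometer in positive and negative ionization mode, and data collection spanned 3 months. Retention time was obtained from adduct peaks picked computationally and each checked manually.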
`CC(C)N1C(=O)c2cccnc2Sc2cc(NC(=O)C3CCCO3)ccc21` (centres undefined) displayed an RP-LC retention time of 729 s. The molecule `Cc1ccc(S(=O)(=O)Nc2nc3ccccc3nc2Nc2ccc3nsnc3c2)cc1` displayed an RP-LC retention time of 1220 s. The result for `O=C(CSc1ccc(-n2ccnc2)nn1)NC1CCCCC1` reads 564 s; that for `COC(=O)c1c(C)c(C(=O)C(C)N(C(=O)c2ccccc2Cl)C(C)C)c(C)n1C` (centres undefined), 975 s. As for `O=C(CN1C(=O)CCCc2cc(S(=O)(=O)N3CCCCC3)ccc21)N1CCCCC1`, the figure is 819 s. The result for `N#Cc1cccc(Cn2cc(S(=O)(=O)N3CCCCC3)ccc2=O)c1` reads 842 s; that for `CCCS(=O)(=O)N1CC(=O)N(c2cccc(Cl)c2C)C(C)(C(=O)NC2CCCCC2)C1` (centres undefined), 1010 s. Molecule `CN(C(=O)Cn1cnc2c(-c3ccc(Cl)cc3)csc2c1=O)c1ccccc1` yielded an RP-LC retention time of 1020 s. The result for `Cc1ccc(CNC(=O)C2CCN(c3cnn(C)c(=O)c3)C2)o1` (centres undefined) reads 641 s. As to `CSc1cccc(NC(=O)NC2CCN(c3ccc(C)c(C)c3)C2=O)c1` (centres undefined), the RP-LC retention time is 929 s.

`N#Cc1ccc(NC(=O)Cc2csc3nc(-c4ccccc4)cn23)cc1`: the RP-LC retention time came to 763 s. As for `COc1cccc(-c2noc(Cn3ccn(-c4ccccc4C)c(=O)c3=O)n2)c1OC`, the figure is 798 s; as for `O=C(O)c1nnn(-c2ccc3c(c2)OCCO3)c1-c1ccccn1`, 640 s. As for `CC(C)NC(=O)c1cc(N2CCCC2)n2nccc2n1`, the figure is 784 s; as for `C=CCNC(=O)N1CC(=O)Nc2ccccc21`, 592 s. As for `O=S(=O)(NCc1nc(-c2ccc(-c3csc(C4CC4)n3)cc2)no1)c1ccc(F)cc1`, the RP-LC retention time was 1080 s. As for `CC(C)NC(=O)c1cccc(Nc2c(-c3ccc(Cl)cc3)nc3cnccn23)c1`, the figure is 687 s. As for `CCCNc1cc(N2CCC(CCC(=O)NCc3ccc(F)cc3Cl)CC2)ncn1`, the figure is 727 s. On to `CS(=O)(=O)N1CCC(C(=O)Nc2nnc(-c3ccc4c(c3)OCCO4)o2)CC1`, for which the RP-LC retention time worked out at 646 s. As for `COc1cccc(CNC(=O)C2CCN(C(=O)C3Sc4ccccc4NC3=O)CC2)c1` (centres undefined), the figure is 725 s. Molecule `O=C(CCc1nc(-c2cccnc2)no1)NCCc1c[nH]c2ccccc12` had an RP-LC retention time of 709 s. The molecule `O=C(CC1CCN(C(=O)c2ccc3oc(-c4ccccc4)nc3c2)CC1)NCCN1CCOCC1` showed an RP-LC retention time of 630 s. The molecule `O=C(NC1CCCCC1)c1ncoc1-c1ccccc1C(=O)N1CCCC1` showed an RP-LC retention time of 798 s. `O=C(O)c1cccc(Nc2c(-c3ccc([N+](=O)[O-])cc3)nc3cnccn23)c1` returned an RP-LC retention time of 717 s. `CCN(c1ccccc1)S(=O)(=O)c1ccc2[nH]c(=O)[nH]c2c1` yielded an RP-LC retention time of 655 s. The result for `O=C(CN1C(=O)COc2cc(Cl)ccc21)NC1CC1` reads 714 s. In turn, `O=C(C1CCCN(c2nnc3ccccn23)C1)N1CCN(c2ccccn2)CC1` (centres undefined) gave an RP-LC retention time of 514 s. On to `CCN1C(=O)CCc2cc(NS(=O)(=O)c3ccc(C)c(F)c3)ccc21`, for which the RP-LC retention time turned out to be 800 s. The result for `O=C(Nc1ccc2c(c1)OCCO2)N1CCCC1c1nc(CCOCC2CCCC2)no1` (centres undefined) reads 896 s; that for `CN(C)c1cccc(C(=O)Nc2ccc(CC(=O)NC(C)(C)CO)cc2)c1`, 594 s; that for `COc1ccc(-c2noc(-c3ccc(NC(=O)COc4ccc(Br)cc4)cc3)n2)cc1`, 1280 s.

In turn, `CCCN(C)c1nccnc1OC1CCN(C(=O)C2CCCCC2)C1` (centres undefined) displayed an RP-LC retention time of 938 s. Regarding `CCOC(=O)C1CCN(C(c2ccc(C)cc2)c2c(O)cc(C)n(CC)c2=O)CC1` (centres undefined), the RP-LC retention time came out at 725 s.

`CCn1c(CCC(=O)NCc2ccc(F)c(Cl)c2)nc2c(C)cccc2c1=O`: the RP-LC retention time stood at 916 s. Regarding `O=C(CCc1conc1-c1ccc(F)cc1)NCc1ccc(F)cc1`, the RP-LC retention time turned out to be 886 s.

`O=C(O)CN1CCCc2c(cnn2Cc2ccccc2)C1=O` came in with an RP-LC retention time of 656 s. The result for `CCOC(=O)C1CCN(c2ncc(C(=O)Nc3ccc(OC)cc3)c(N)n2)CC1` reads 698 s; that for `CCNC(=O)N1CCCC(c2cccc(C(=O)NC3CCCCC3)c2)C1` (centres undefined), 817 s; that for `CC1CCCCN1CCCNC(=O)Cn1c(=O)c2cccn2c2ccc(F)cc21` (centres undefined), 611 s. As for `COc1ccc(CCNC(=O)CN2C(=O)c3cccc4cccc(c34)C2=O)cc1OC`, the figure is 725 s.

In turn, `CCn1nc2ccc(S(=O)(=O)N3CCC(C)CC3)cn2c1=O` came in with an RP-LC retention time of 827 s. On to `Cc1cc2c(=O)n(CC(=O)Nc3ccc(Cl)cc3)c3cccnc3n2n1`, for which the RP-LC retention time was found to be 745 s.

With `COc1cc(C(=O)NCC(c2ccc3c(c2)OCO3)N2CCOCC2)cc(OC)c1OC` (centres undefined), the RP-LC retention time came out at 617 s. In turn, `O=c1c2sccc2n(Cc2nc(-c3ccccc3)no2)c(=O)n1Cc1ccccc1` registered an RP-LC retention time of 985 s. The result for `O=C(C1=NN(Cc2ccccc2)c2ccccc2S1(=O)=O)N1CCCC1` reads 784 s; that for `Cc1nn(-c2ccccc2)c(C)c1S(=O)(=O)N1CCC(C(=O)Nc2ccc(F)cc2Cl)CC1`, 1000 s.

`Cc1ccc(N2CC(C(=O)N3CCCC3)CC2=O)cc1` (centres undefined): the RP-LC retention time stood at 640 s. As for `Cc1cc(C)c(Nc2ccnc(Nc3ccc(C#N)cc3)n2)c(C)c1`, the figure is 798 s. With `O=C(Nc1ccc2c(c1)OCO2)N1CCC(n2c(-c3ccco3)nc3cccnc32)C1` (centres undefined), the RP-LC retention time came to 726 s. Molecule `O=C(c1cc(-c2ccc(F)c(F)c2)on1)N1CCC(Cn2cccn2)CC1` returned an RP-LC retention time of 797 s.

`CCN(CCNC(=O)c1cccc2c1SCCC2=O)Cc1ccccc1` registered an RP-LC retention time of 627 s. In turn, `Cc1noc(-c2cc(=O)n(CC(=O)Nc3cc(F)cc(F)c3)c3ccccc23)n1` had an RP-LC retention time of 904 s. On to `Cc1nn2c(CNS(=O)(=O)c3cc(F)ccc3F)c(-c3ccccc3)nc2s1`, for which the RP-LC retention time was found to be 848 s. As for `CC(Cc1ccco1)NC(=O)CN1C(=O)C2CCCCN2c2ccc(S(=O)(=O)N(C)C)cc21` (centres undefined), the figure is 879 s; as for `Cc1ccc(-c2cc3c(=O)n(Cc4noc(CN5CCCC(C)C5)n4)ccn3n2)cc1` (centres undefined), 705 s. As for `O=C(NCC1CCCO1)c1nc2ccccn2c1-c1ccc(Cl)cc1` (centres undefined), the figure is 785 s; as for `COc1ccc(S(=O)(=O)N2CCC(n3c(-c4ccoc4)nc4cccnc43)C2)cc1` (centres undefined), 831 s; as for `CC1CCc2c(sc3nc(CCC(=O)NCCc4c[nH]c5ccccc45)[nH]c(=O)c23)C1` (centres undefined), 898 s. The result for `N#Cc1ccc(C(=O)NCc2cnoc2-c2ccc(F)cc2)cc1` reads 848 s. In turn, `O=C(Nc1ccc2c(c1)OCCO2)N1CCCn2nc(-c3cccs3)cc2C1` returned an RP-LC retention time of 777 s. For the molecule `CCc1ccc(Nc2nc(C(=O)NCCCOC)nc3ccccc23)cc1`, the RP-LC retention time came to 750 s. As for `CCc1nc(-c2ccc(C(=O)N3CCN(C(=O)c4ccco4)CC3)cc2)cs1`, the figure is 767 s; as for `CCCCN(C)C(=O)Cn1c(CN(C)C(=O)c2ccco2)nc2ccccc21`, 655 s; as for `Cc1cc(C(=O)Nc2nnc(-c3cccs3)o2)no1`, 632 s. On to `O=C(C1CC1)N1CCc2sc(S(=O)(=O)NCc3cccc(Cl)c3)cc2C1`, for which the RP-LC retention time is 923 s. As for `COc1ccc(-c2nc(-n3c(C)c4c(C)nnc(C)c4c3C)sc2C)cc1`, the figure is 726 s; as for `Cc1ccc(CNC(=O)C2(C)CN(S(C)(=O)=O)CC(=O)N2Cc2ccc(Cl)cc2)cc1` (centres undefined), 906 s; as for `O=C(NC1CCCC1)C1CCN(C(=O)c2cccn2-c2cccnc2)CC1`, 632 s. For the molecule `CC(NC(=O)c1ccco1)c1nc(-c2ccc3c(c2)ncn3C2CCCC2)no1` (centres undefined), the RP-LC retention time amounted to 674 s. The result for `Cc1nc(-c2noc(-c3ccncc3)n2)cn1CC(=O)NCc1cccs1` reads 640 s. Molecule `CSc1ccc(-c2noc(CN3C(=O)COc4ccccc43)n2)cc1` registered an RP-LC retention time of 1110 s. As for `CCOc1ccccc1NC(=O)N1C[C@@H](F)C[C@H]1C(=O)N1CCc2ccccc2C1`, the figure is 819 s; as for `Cn1c(=O)c(SCC(=O)NC2CCN(Cc3ccccc3)CC2)nc2ccccc21`, 624 s. As for `CCN1C(=O)c2cccnc2Sc2cc(NC(=O)CCc3ccc(OC)cc3)ccc21`, the figure is 855 s.

For the molecule `CCOc1ccccc1CNC(=O)C1CCN(Cc2cn(CC)c3ccc(OC)cc23)CC1`, the RP-LC retention time was found to be 759 s. Consider `CC(Oc1ccccc1F)C(=O)Nc1ccc(-c2nc(-c3ccc(F)cc3)no2)cc1` (centres undefined), for which the RP-LC retention time amounted to 1260 s.

Molecule `COc1cccc(S(=O)(=O)N2CCCN(C)c3ccccc32)c1` came in with an RP-LC retention time of 976 s. `C=CCNc1nnc(SCC(=O)N2CCC(C(N)=O)CC2)s1` registered an RP-LC retention time of 572 s. As for `CCCNC(=O)c1nc(-c2ccc3c(c2)OCC(=O)N3CC)no1`, the figure is 821 s.
